{"source": "patent US20250304623A1", "about": "“PEPTIDES FOR INTRACELLULAR DELIVERY” (UNIVERSIDADE DE SANTIAGO DE COMPOSTELA, priority 2022, published 2025)", "assay_type_in_all_cases": "cell-based", "key": {"[1]": {"system": "A549 cells", "assay": "RLuc pDNA delivery, robotic library screening, A549", "method": "(§1) Cells were seeded in a 96 well plate the day before the experiment at a concentration of 60,000 cell/mL (100 μL/w) in DMEM+10% FBS+1% Gln-Abt. For robotic library screening, the delivery of pDNA encoding for the expression of Renilla luciferase gene (RLuc, pRL-CMV (Promega, #E2261)) in six different cell lines was performed. Amphihilic molecule stock solutions in DMSO were diluted with DMEM and freshly mixed with pDNA stock solutions in DMEM prior to transfection experiments, to afford several complexes at different amphiphile concentration (2-10 μM) while maintaining a constant final pDNA concentration of 2 ng/μL. The mixture was shaken for 30 min at room temperature before the addition to the cells. The cell medium was aspirated, and cells were washed twice with PBS. Finally, 50 μL of the complex's solution were added to the cells and incubated for 4 h. After the incubation, the medium was replaced by 100 μL of fresh DMEM supplemented with 10% FBS. 72 hours after transfection the DMEM was removed, cells were washed once with HBSS and 90 μL of HBSS were added to each well. Cells were incubated at 37° C. for 30 minutes. Then basal luminescence levels were read in a plate reader. Immediately, 10 μL of coelenterazine h in HBSS were added to each well (5 μM final concentration) and cells were incubated at 37° C. for 10 minutes. Finally, the total luminescence measurement of the plates was performed. Amphiphile transfection efficiency was compared and normalized to Lipofectamine® 2000 efficiency (value of 1 in Tables 1-5 and 7; bold numbers). All experiments were done in triplicate.\n(§2) Tables 1-7: RLuc (pDNA) or EGFP (mRNA) expression levels were normalized to Lipofectamine reagents (value=1) and expressed as fold-times signal increase. In the case of siRNA, the siRNA treated cells fluorescence was compared with siMOCK control fluorescence, while Cas9-RNP mediated knockout was measured against the fluorescence of untreated cells. In both siRNA and Cas9-RNP, values are expressed as % fluorescence reduction. Amphiphile concentration was 5 μM in all cases. All experiments were performed in triplicate.\n(§3) Tables 8-13 show the mean (triplicates) luminescent intensity (RLU) measured after the transfection of RLuc pDNA by different amphiphiles at different concentrations in a variety of cell lines. Background luminescence values, accounted by untransfected control cells, were subtracted for processing."}, "[2]": {"system": "Hek293 cells", "assay": "EGFP mRNA delivery, robotic library screening, Hek293", "method": "(§4) Cells were seeded in a 96 well plate the day before the experiment at a concentration of 50,000 cell/mL (100 μL/w) in DMEM+10% FBS+1% Gln-Abt. For robotic library screening, the delivery of EGFP-mRNA (from TriLink, fully substituted with 5-methoxyuridine, capped and polyadenylated; TriLink, CleanCap® EGFP mRNA (5moU), ref. L-7201) in six different cell lines was performed. Amphiphilic molecule stock solutions were prepared in DMSO as described above and diluted in DMEM to afford a range of concentrations. The solutions of EGFP-mRNA/amphiphilic molecule complexes were freshly prepared prior to the transfection experiments. 35 μL of the corresponding amphiphile were added to 10 μL of a solution of EGFP-mRNA at 10 ng/μL in DMEM. The mixture was shaken for 30 min at room temperature before the addition to the cells. The cell medium was aspirated, and cells were washed with PBS twice. Cells were covered with 39 μL of DMEM and 11 μL of the complex's solution were added to the cells and incubated for 4 h (final concentration of peptide=2.5, 5 and 10 μM; final concentration of EGFP-mRNA=25 ng/well). After the incubation, the medium was replaced by 100 μL of fresh DMEM supplemented with 10% FBS. The total EGFP fluorescence was quantified after 72 h in a well plate reader. Amphiphile transfection efficiency was compared and normalized to Lipofectamine® MessengerMax efficiency (value of 1 in Tables 1-5 and 7; double underlined numbers). All experiments were done in triplicate.\nas §2\n(§5) Tables 14-19 show the mean (triplicates) fluorescence intensity measured after the transfection of EGFP mRNA by different amphiphiles at different concentrations in a variety of cell lines. Background fluorescence values, accounted by untreated control cells, were subtracted for processing."}, "[3]": {"system": "Hek293 cells", "assay": "RLuc pDNA delivery, robotic library screening, Hek293"}, "[4]": {"system": "HepG2 cells", "assay": "EGFP mRNA delivery, robotic library screening, HepG2", "settings": "HepG2 cells", "method": "as §4, with “Cells were covered with 39 μL of DMEM and 11 μL of the complex's solution were added to the cells and incubated for 4 h (final concentration of peptide=2.5, 5 and 10 μM; final concentration of EGFP-mRNA=25 ng/well).” left out\nas §2, §5"}, "[5]": {"system": "HepG2 cells", "assay": "RLuc pDNA delivery, robotic library screening, HepG2", "method": "as §1, §2, §3"}}, "note": "*: point of attachment. NHNH2 = NN*"}
{"substance": "Ac-RRLK*RLLRRLK*RL-NH2 (Ac-RRLK(NHNH2)RLLRRLK(NHNH2)RL-NH2; not fully specified; printed as Ac-RRLK*RLLRRLK*RL-NH2; also: K*4,K*11: native or modified lysine (ε-amide to a linker)) [Peptide 13.2]", "values": [{"measurement": "mean luminescent intensity (RLuc pDNA)", "setting": "[1]; Oleyl, 5 μM", "result": 2368, "unit": "RLU"}, {"measurement": "mean luminescent intensity (RLuc pDNA)", "setting": "[1]; Oleyl, 10 μM", "result": 1152, "unit": "RLU"}, {"measurement": "mean luminescent intensity (RLuc pDNA)", "setting": "[1]; Oleyl, 15 μM", "result": 1367, "unit": "RLU"}, {"measurement": "mean fluorescence intensity (EGFP mRNA)", "setting": "[2]; Dodecanal, 5 μM", "result": 678}, {"measurement": "mean fluorescence intensity (EGFP mRNA)", "setting": "[2]; Dodecanal, 10 μM", "result": 520}, {"measurement": "mean fluorescence intensity (EGFP mRNA)", "setting": "[2]; Oleyl, 2.5 μM", "result": 955}, {"measurement": "mean fluorescence intensity (EGFP mRNA)", "setting": "[2]; Oleyl, 5 μM", "result": 666}, {"measurement": "mean fluorescence intensity (EGFP mRNA)", "setting": "[2]; Oleyl, 10 μM", "result": 791}, {"measurement": "mean luminescent intensity (RLuc pDNA)", "setting": "[3]; Oleyl, 5 μM", "result": 83689, "unit": "RLU"}, {"measurement": "mean luminescent intensity (RLuc pDNA)", "setting": "[3]; Oleyl, 10 μM", "result": 22447, "unit": "RLU"}, {"measurement": "mean luminescent intensity (RLuc pDNA)", "setting": "[3]; Oleyl, 15 μM", "result": 7233, "unit": "RLU"}, {"measurement": "mean fluorescence intensity after transfection of EGFP mRNA", "setting": "[4]; Oleyl, 5 μM", "result": 612}]}
{"substance": "Ac-RRLK*RLLRRLK*RLK*RRL-NH2 (Ac-RRLK(NHNH2)RLLRRLK(NHNH2)RLK(NHNH2)RRL-NH2; not fully specified; printed as Ac-RRLK*RLLRRLK*RLK*RRL-NH2; also: K*4,K*11,K*14: native or modified lysine (ε-amide to a linker)) [Peptide 17.3]", "values": [{"measurement": "mean luminescent intensity (RLuc pDNA)", "setting": "[1]; Dodecanal, 10 μM", "result": 1381, "unit": "RLU"}, {"measurement": "mean luminescent intensity (RLuc pDNA)", "setting": "[1]; Dodecanal, 15 μM", "result": 1660, "unit": "RLU"}, {"measurement": "mean luminescent intensity (RLuc pDNA)", "setting": "[1]; Myristoleyl, 10 μM", "result": 1545, "unit": "RLU"}, {"measurement": "mean luminescent intensity (RLuc pDNA)", "setting": "[1]; Myristoleyl, 15 μM", "result": 2581, "unit": "RLU"}, {"measurement": "mean luminescent intensity (RLuc pDNA)", "setting": "[1]; Oleyl, 10 μM", "result": 1201, "unit": "RLU"}, {"measurement": "mean luminescent intensity (RLuc pDNA)", "setting": "[1]; Oleyl, 15 μM", "result": 1552, "unit": "RLU"}, {"measurement": "mean luminescent intensity (RLuc pDNA)", "setting": "[1]; Palmitoleyl, 5 μM", "result": 2518, "unit": "RLU"}, {"measurement": "mean luminescent intensity (RLuc pDNA)", "setting": "[1]; Palmitoleyl, 15 μM", "result": 2585, "unit": "RLU"}, {"measurement": "mean luminescent intensity (RLuc pDNA)", "setting": "[1]; Petroselinyl, 15 μM", "result": 2614, "unit": "RLU"}, {"measurement": "mean luminescent intensity (RLuc pDNA)", "setting": "[5]; Dodecanal, 5 μM", "result": 32417, "unit": "RLU"}, {"measurement": "mean luminescent intensity (RLuc pDNA)", "setting": "[5]; Dodecanal, 10 μM", "result": 2293, "unit": "RLU"}, {"measurement": "mean luminescent intensity (RLuc pDNA)", "setting": "[5]; Dodecanal, 15 μM", "result": "−1196", "unit": "RLU"}, {"measurement": "mean luminescent intensity (RLuc pDNA)", "setting": "[5]; Myristoleyl, 5 μM", "result": 39022, "unit": "RLU"}, {"measurement": "mean luminescent intensity (RLuc pDNA)", "setting": "[5]; Myristoleyl, 15 μM", "result": "−417", "unit": "RLU"}, {"measurement": "mean luminescent intensity (RLuc pDNA)", "setting": "[5]; Oleyl, 5 μM", "result": 6483, "unit": "RLU"}, {"measurement": "mean luminescent intensity (RLuc pDNA)", "setting": "[5]; Oleyl, 15 μM", "result": "−1375", "unit": "RLU"}, {"measurement": "mean luminescent intensity (RLuc pDNA)", "setting": "[5]; Palmitoleyl, 5 μM", "result": 63064, "unit": "RLU"}, {"measurement": "mean luminescent intensity (RLuc pDNA)", "setting": "[5]; Palmitoleyl, 15 μM", "result": 356, "unit": "RLU"}, {"measurement": "mean luminescent intensity (RLuc pDNA)", "setting": "[3]; Dodecanal, 10 μM", "result": 12692, "unit": "RLU"}, {"measurement": "mean luminescent intensity (RLuc pDNA)", "setting": "[3]; Dodecanal, 15 μM", "result": 3248, "unit": "RLU"}, {"measurement": "mean luminescent intensity (RLuc pDNA)", "setting": "[3]; Myristoleyl, 5 μM", "result": 158771, "unit": "RLU"}, {"measurement": "mean luminescent intensity (RLuc pDNA)", "setting": "[3]; Myristoleyl, 10 μM", "result": 4717, "unit": "RLU"}, {"measurement": "mean luminescent intensity (RLuc pDNA)", "setting": "[3]; Myristoleyl, 15 μM", "result": "−110", "unit": "RLU"}, {"measurement": "mean luminescent intensity (RLuc pDNA)", "setting": "[3]; Palmitoleyl, 5 μM", "result": 10403, "unit": "RLU"}, {"measurement": "mean luminescent intensity (RLuc pDNA)", "setting": "[3]; Palmitoleyl, 10 μM", "result": 1319, "unit": "RLU"}, {"measurement": "mean luminescent intensity (RLuc pDNA)", "setting": "[3]; Palmitoleyl, 15 μM", "result": "−644", "unit": "RLU"}, {"measurement": "mean fluorescence intensity after transfection of EGFP mRNA", "setting": "[4]; Dodecanal, 5 μM", "result": 32417}, {"measurement": "mean fluorescence intensity after transfection of EGFP mRNA", "setting": "[4]; Dodecanal, 10 μM", "result": 2293}, {"measurement": "mean fluorescence intensity after transfection of EGFP mRNA", "setting": "[4]; Myristoleyl, 5 μM", "result": 39022}, {"measurement": "mean fluorescence intensity after transfection of EGFP mRNA", "setting": "[4]; Myristoleyl, 10 μM", "result": 251}, {"measurement": "mean fluorescence intensity after transfection of EGFP mRNA", "setting": "[4]; Myristoleyl, 15 μM", "result": "−417"}, {"measurement": "mean fluorescence intensity after transfection of EGFP mRNA", "setting": "[4]; Oleyl, 5 μM", "result": 6483}, {"measurement": "mean fluorescence intensity after transfection of EGFP mRNA", "setting": "[4]; Palmitoleyl, 5 μM", "result": 63064}, {"measurement": "mean fluorescence intensity after transfection of EGFP mRNA", "setting": "[4]; Palmitoleyl, 10 μM", "result": 7710}, {"measurement": "mean fluorescence intensity after transfection of EGFP mRNA", "setting": "[4]; Palmitoleyl, 15 μM", "result": 356}, {"measurement": "mean fluorescence intensity after transfection of EGFP mRNA", "setting": "[4]; Petroselinyl, 5 μM", "result": 56287}, {"measurement": "mean fluorescence intensity after transfection of EGFP mRNA", "setting": "[4]; Petroselinyl, 10 μM", "result": 5790}, {"measurement": "mean fluorescence intensity after transfection of EGFP mRNA", "setting": "[4]; Petroselinyl, 15 μM", "result": 157}]}
